Source: patent US20030050283A1, “Composition for the treatment and/or prevention of macular degeneration, method for its manufacture, and its use for treating the eye” (priority 2001, published 2003)
Like-named read-outs stand apart in the source and are kept apart here.

Key:
[1] = target: T1, solubilized cytochrome c oxidase (COX) (Rattus norvegicus, UniProt P00406+P05503+P05505); experiment: Activity of solubilized cytochrome c oxidase by oxygen consumption (Clarke electrode); type: biochemical; details: for IC50: read-out: IC50 (μM) in relation to COX
T1 construct: Cytochrome c oxidase was purified from rat liver mitochondria of female Wistar rats; from tissue; host or cells: rat liver mitochondria (female Wistar rats)
T1 sequence (P00406 whole entry, other chains not shown): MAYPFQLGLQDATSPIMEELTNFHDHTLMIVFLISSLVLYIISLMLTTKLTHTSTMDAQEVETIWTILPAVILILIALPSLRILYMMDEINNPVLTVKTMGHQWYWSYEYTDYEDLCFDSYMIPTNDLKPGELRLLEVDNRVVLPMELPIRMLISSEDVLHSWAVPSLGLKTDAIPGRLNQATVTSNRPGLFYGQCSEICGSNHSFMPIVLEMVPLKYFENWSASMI
T1 sequence (P05505 whole entry, other chains not shown): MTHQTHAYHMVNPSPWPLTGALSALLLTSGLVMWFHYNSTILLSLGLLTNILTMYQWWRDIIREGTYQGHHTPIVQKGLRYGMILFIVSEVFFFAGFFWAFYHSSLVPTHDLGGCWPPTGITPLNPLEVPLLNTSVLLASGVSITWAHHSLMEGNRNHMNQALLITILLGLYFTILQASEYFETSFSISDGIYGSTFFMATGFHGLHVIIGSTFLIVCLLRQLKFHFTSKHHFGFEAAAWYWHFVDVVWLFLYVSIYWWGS
Method: Cytochrome c oxidase was purified from rat liver mitochondria of female Wistar rats as described by Frei et al. (Frei, B., Winterhalter, K. H., and Richter, C. (1985) J. Biol. Chem. 260, 7394-7401). The homogenization medium contained 210 mM mannitol, 70 mM saccharose, 10 mM tris-HCl (pH 7.4), 0.1 mM EDTA, and 0.5 mg/mL BSA. The heart mitochondria were purified using a similar method, a polytron homogenizer being used. The cytochrome c oxidase was purified according to the method described by Adez and Cascarano (Adez, I. Z., and Cascarano, J. (1977) J. Bioenerg. Biomemb. 9, 237-253). Cytochrome c oxidase solubilized using Triton X-100 was reconstituted in variously composed phospholipid vesicles of differing dimensions, a modified cholate dialysis method being used. (Niggli, V., Siegel, E., and Carafoli, E. (1982) J. Biol. Chem. 257, 2350-2356). 1 mL of a phospholipid suspension (10 mg/mL in 50 mM KCl, 10 mM HEPES-KOH (pH 7.0), 0.1 mM K^+-EDTA; buffer A) was solubilized in 0.2 mL of a 400 mM cholate solution. The purified cytochrome c oxidase (40 μg) was added to 0.4 mL of the cholate-phospholipid mixture. After an hour on ice, the sample was put into dialysis tubes and dialyzed in the cold against 1 L of buffer A (24 hours), three buffer replacements being performed. Cytochrome c oxidase from Paracoccus denitrificans was graciously provided by Dr. Bernd Ludwig, Biology Center of the University of Frankfurt am Main, Germany.
The cytochrome c oxidase activity was determined by establishing the oxygen consumption. For this purpose, a Clarke electrode was used at 25° C. (Yellow Spring Instruments, Yellow Spring, Ohio), the measurement being performed under continuous stirring. Solubilized cytochrome c oxidase was suspended in 40 mM K^+-phosphate, 0.005 mM EDTA (pH 7.0), 0.7% Tween 20 containing 0.02 mM cytochrome c as a substrate and a mixture of ascorbate und tetramethyl-p-phenylenediamine (TMPD) (10 mM/1 mM). Reconstituted cytochrome c oxidase was measured with ascorbate/TPMD (10 mM/0.2 mM) in a medium containing 100 mM KCl, 0.01 M HEPES-KOH (pH 7.0) und 0.1 mM EDTA.
The radiation with light was performed using a 70 watt lamp which was attached at 10 cm height over the electrode. The oxidation of lipids using peroxynitrite was achieved by suspending 20 mg DPG in 1 mL of 40 mM K^+-phosphate and 0.05 mM EDTA (pH 7.0) and mixing with 0.94 μmol peroxynitrite (original solution 94 mM in 0.1 N NaOH). Malondialdehyde was measured as an index for the lipid oxidation as already described (Klein, S. D., Walt, H., and Richter, C. (1997) Arch. Biochem. Biophys., 348, 313-319).
The activity of the COX could be easily measured by registering the oxygen consumption of the enzyme in the presence of ascorbate and TPMD (tetramethyl-p-phenylene diamine) as an electron source to reduce cytochrome c.
The experiment was performed in darkness (line a) and/or under the incidence of light (line b). 5 μg of catalase from beef liver with 500 μM of H2O2 was added at the positions marked with arrows. […] Two separate measurements are illustrated (lines a and b). At the positions marked by dashed arrows, 300 μg/mL of cardiolipin was added at t=210 seconds and t=950 seconds. At the position of the solid arrow, 5 μg of catalase from beef liver with 500 μM of H2O2 was added.
The oxygen consumption of solubilized COX (2 μg/mL) was measured in the presence of various substances using a Clarke electrode (see materials and methods). […] TPP^+=tetraphenyl phosphonium ion; MPP^+=methylphenyl pyridinium ion.
The oxygen consumption of solubilized COX (2 μg/mL) was measured in the presence of various substances using a Clarke electrode (see materials and methods).

MCF-7 cells = experiment: A2E-induced apoptosis of MCF-7 cells in culture; type: cell-based
Source text: These advantageous properties predestine the phospholipids according to the present invention for use as a medication for treating pathological conditions of the retina, particular for treating AMD and macular degeneration.

COX = target: T2, COX (Rattus norvegicus, UniProt P00406+P05503+P05505); experiment: Binding of [3H]-A2E to COX by co-precipitation; details: 20 min
T2 construct: Cytochrome c oxidase was purified from rat liver mitochondria of female Wistar rats; from tissue; host or cells: rat liver mitochondria (female Wistar rats)
T2 sequence (P00406 whole entry, other chains not shown): as the sequence (P00406 whole entry, other chains not shown) above
T2 sequence (P05505 whole entry, other chains not shown): as the sequence (P05505 whole entry, other chains not shown) above
Method: (§1) The quantity of protein used in each case was approximately 50 pmol. After 20 minutes of incubation in the darkness or under radiation using light, 10% (final concentration) of trichloroacetic acid was added, the precipitate was collected on Millipore filters, and the dissolved filter was examined for radioactivity.
To investigate the hypothesis of whether a molecular interaction occurs between COX and A2E, an acid precipitation of COX was performed after the addition of A2E and radiation with light, and/or after A2E exposure in darkness (see Table IV).
(§2) [^3H]-A2E was added to solubilized COX or other proteins. After 20 minutes of incubation in darkness (setup was wrapped in aluminum foil) or under exposure to light, 10% trichloroacetic acid (final concentration) was added, the precipitate was collected on Millipore filters, and the filters, which were dissolved in solvent, were subsequently examined for radioactivity. CL=cardiolipin (diphosphatidylglycerol, DPC); Cyt. c=cytochrome c; BSA=bovine serum albumin.

COX from rat hearts = target: T3, COX from rat hearts (Rattus norvegicus, UniProt P00406+P05503+P05505); experiment: Reconstituted COX from rat hearts, sensitivity to A2E; type: biochemical
T3 construct: The heart mitochondria were purified using a similar method, a polytron homogenizer being used; from tissue; host or cells: rat heart mitochondria
T3 sequence (P00406 whole entry, other chains not shown): as the sequence (P00406 whole entry, other chains not shown) above
T3 sequence (P05505 whole entry, other chains not shown): as the sequence (P05505 whole entry, other chains not shown) above
Method: (§3) Cytochrome c oxidase was purified from rat liver mitochondria of female Wistar rats as described by Frei et al. (Frei, B., Winterhalter, K. H., and Richter, C. (1985) J. Biol. Chem. 260, 7394-7401). The homogenization medium contained 210 mM mannitol, 70 mM saccharose, 10 mM tris-HCl (pH 7.4), 0.1 mM EDTA, and 0.5 mg/mL BSA. The heart mitochondria were purified using a similar method, a polytron homogenizer being used. The cytochrome c oxidase was purified according to the method described by Adez and Cascarano (Adez, I. Z., and Cascarano, J. (1977) J. Bioenerg. Biomemb. 9, 237-253). Cytochrome c oxidase solubilized using Triton X-100 was reconstituted in variously composed phospholipid vesicles of differing dimensions, a modified cholate dialysis method being used. (Niggli, V., Siegel, E., and Carafoli, E. (1982) J. Biol. Chem. 257, 2350-2356). […]
(§4) The cytochrome c oxidase activity was determined by establishing the oxygen consumption. […] Reconstituted cytochrome c oxidase was measured with ascorbate/TPMD (10 mM/0.2 mM) in a medium containing 100 mM KCl, 0.01 M HEPES-KOH (pH 7.0) und 0.1 mM EDTA.
(§5) A protective effect by negatively charged phospholipids was also observed when increasing quantities of cardiolipin (see above, a negatively charged phospholipid) were added to vesicles containing PC/PE (see Table III). […]

[2] = target: T4, COX from Paracoccus denitrificans (Paracoccus denitrificans, UniProt P08306+P98002); experiment: Reconstituted COX from Paracoccus denitrificans, sensitivity to A2E; type: biochemical
T4 construct: host or cells: gift from Dr. Bernd Ludwig, University of Frankfurt am Main
T4 sequence (P08306 30-281): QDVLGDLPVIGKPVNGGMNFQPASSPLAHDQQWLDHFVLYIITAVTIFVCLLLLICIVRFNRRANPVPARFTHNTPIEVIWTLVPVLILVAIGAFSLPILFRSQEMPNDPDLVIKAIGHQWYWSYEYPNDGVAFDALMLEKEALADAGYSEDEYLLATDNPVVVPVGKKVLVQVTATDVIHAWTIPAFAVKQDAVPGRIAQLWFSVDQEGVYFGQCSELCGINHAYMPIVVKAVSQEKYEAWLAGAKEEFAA
T4 sequence (P98002 whole entry): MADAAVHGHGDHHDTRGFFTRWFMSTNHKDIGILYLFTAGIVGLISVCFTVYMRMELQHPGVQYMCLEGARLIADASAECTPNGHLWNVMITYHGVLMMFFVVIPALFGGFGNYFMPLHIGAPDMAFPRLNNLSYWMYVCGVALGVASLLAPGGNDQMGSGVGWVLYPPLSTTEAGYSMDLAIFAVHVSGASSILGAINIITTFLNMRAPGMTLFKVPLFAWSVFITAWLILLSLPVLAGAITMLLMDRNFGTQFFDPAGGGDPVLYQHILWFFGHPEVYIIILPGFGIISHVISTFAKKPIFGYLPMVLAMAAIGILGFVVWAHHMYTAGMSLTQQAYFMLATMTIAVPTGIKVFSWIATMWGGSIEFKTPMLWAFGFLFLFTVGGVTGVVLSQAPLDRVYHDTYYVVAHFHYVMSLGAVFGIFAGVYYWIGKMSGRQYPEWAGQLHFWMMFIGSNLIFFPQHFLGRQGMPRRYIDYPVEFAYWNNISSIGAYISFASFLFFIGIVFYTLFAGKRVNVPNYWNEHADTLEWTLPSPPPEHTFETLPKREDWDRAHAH
Method: as §3, §4, §5

Cyt.c = Cyt.c (Homo sapiens, UniProt P99999); experiment: Binding of [3H]-A2E to cytochrome c by co-precipitation; details: 20 min
Sequence of Cyt.c (P99999 whole entry): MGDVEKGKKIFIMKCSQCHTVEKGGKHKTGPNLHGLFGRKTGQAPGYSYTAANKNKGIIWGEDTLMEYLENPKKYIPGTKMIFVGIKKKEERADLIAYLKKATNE
Method: as §1, §2

BSA = BSA (Bos taurus, UniProt P02769); experiment: Binding of [3H]-A2E to BSA by co-precipitation; set-up: species or system bovine; details: 20 min
Sequence of BSA (P02769 25-607): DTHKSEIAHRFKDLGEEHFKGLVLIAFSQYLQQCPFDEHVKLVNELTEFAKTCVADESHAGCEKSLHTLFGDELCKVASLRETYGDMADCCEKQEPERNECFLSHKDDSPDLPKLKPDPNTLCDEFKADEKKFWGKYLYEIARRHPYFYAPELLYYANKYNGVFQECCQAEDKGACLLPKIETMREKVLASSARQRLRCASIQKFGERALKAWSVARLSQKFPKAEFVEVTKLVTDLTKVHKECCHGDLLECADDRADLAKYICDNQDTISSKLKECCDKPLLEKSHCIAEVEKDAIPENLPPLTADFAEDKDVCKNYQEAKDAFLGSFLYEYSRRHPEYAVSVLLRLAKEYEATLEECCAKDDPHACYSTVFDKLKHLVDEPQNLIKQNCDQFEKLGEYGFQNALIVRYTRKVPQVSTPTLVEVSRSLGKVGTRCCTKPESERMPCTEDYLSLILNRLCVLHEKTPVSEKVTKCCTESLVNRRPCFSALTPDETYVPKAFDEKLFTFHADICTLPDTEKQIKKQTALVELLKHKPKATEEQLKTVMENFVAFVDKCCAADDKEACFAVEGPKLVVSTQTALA
Method: as §1, §2

Myoglobin = target: T5, Myoglobin (Homo sapiens, UniProt P02144); experiment: Binding of [3H]-A2E to myoglobin by co-precipitation; details: 20 min
T5 sequence (P02144 1-154): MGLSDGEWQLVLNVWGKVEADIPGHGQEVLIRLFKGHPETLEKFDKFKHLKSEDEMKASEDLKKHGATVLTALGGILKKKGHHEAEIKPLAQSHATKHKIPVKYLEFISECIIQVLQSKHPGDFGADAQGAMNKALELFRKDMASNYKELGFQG
Method: as §1, §2

[3] = target: T1, solubilized cytochrome c oxidase (COX); experiment: Activity of solubilized cytochrome c oxidase by oxygen consumption (Clarke electrode); type: biochemical; details: read-out: IC50 (A2E concentration for 50% inhibition of COX)
[4] = target: T6, reconstituted cytochrome c oxidase (COX) (Rattus norvegicus, UniProt P00406+P05503+P05505); experiment: Activity of cytochrome c oxidase reconstituted in phospholipid vesicles, oxygen consumption in presence of A2E; type: biochemical; details: phospholipid used in the vesicles
T6 construct: Cytochrome c oxidase was purified from rat liver mitochondria of female Wistar rats; from tissue; host or cells: rat liver mitochondria (female Wistar rats)
T6 sequence (P00406 whole entry, other chains not shown): as the sequence (P00406 whole entry, other chains not shown) above
T6 sequence (P05505 whole entry, other chains not shown): as the sequence (P05505 whole entry, other chains not shown) above
Method: Cytochrome c oxidase was purified from rat liver mitochondria of female Wistar rats as described by Frei et al. (Frei, B., Winterhalter, K. H., and Richter, C. (1985) J. Biol. Chem. 260, 7394-7401). The homogenization medium contained 210 mM mannitol, 70 mM saccharose, 10 mM tris-HCl (pH 7.4), 0.1 mM EDTA, and 0.5 mg/mL BSA. […] The cytochrome c oxidase was purified according to the method described by Adez and Cascarano (Adez, I. Z., and Cascarano, J. (1977) J. Bioenerg. Biomemb. 9, 237-253). Cytochrome c oxidase solubilized using Triton X-100 was reconstituted in variously composed phospholipid vesicles of differing dimensions, a modified cholate dialysis method being used. […] 1 mL of a phospholipid suspension (10 mg/mL in 50 mM KCl, 10 mM HEPES-KOH (pH 7.0), 0.1 mM K^+-EDTA; buffer A) was solubilized in 0.2 mL of a 400 mM cholate solution. The purified cytochrome c oxidase (40 μg) was added to 0.4 mL of the cholate-phospholipid mixture. After an hour on ice, the sample was put into dialysis tubes and dialyzed in the cold against 1 L of buffer A (24 hours), three buffer replacements being performed.
The cytochrome c oxidase activity was determined by establishing the oxygen consumption. […] Reconstituted cytochrome c oxidase was measured with ascorbate/TPMD (10 mM/0.2 mM) in a medium containing 100 mM KCl, 0.01 M HEPES-KOH (pH 7.0) und 0.1 mM EDTA. […]

1,3 diphosphatidylglycerol [CL]
Protective effect on COX against A2E after (pre)treatment with peroxynitrite ([1]; CL oxidised with peroxynitrite): loss of the protective properties
Cells survived (MCF-7 cells; 60 μM A2E + CL 500 μg/mL, 5 days): 95%
Protection from A2E-induced apoptosis (MCF-7 cells; CL 500 μg/mL): significant protective effect
Prevention of A2E binding to COX (COX; co-precipitation): almost completely prevented

CC1=C(/C=C/C(C)=C/C=C/C(C)=C/c2cc(/C=C/C=C(C)/C=C/C3=C(C)CCCC3(C)C)cc[n+]2CCO)C(C)(C)CCC1 [A2E, N-retinyl-N-retinylidene ethanolamine]
% COX inhibition ([1]; solubilized COX 2 μg/mL, A2E always 20 μM, CL 200 μg/mL, RR 10 μM, La3+ 200 μM where added): 60%
IC50 ([1]; solubilized COX 2 μg/mL): 7 µM
Sensitivity of enzyme to A2E (COX from rat hearts): sensitive
Sensitivity of enzyme to A2E [2]: sensitive
Cells died off (MCF-7 cells; 60 μM A2E, 5 days): 99%
Induction of apoptosis (MCF-7 cells; A2E 10, 30, 60 μM, 3 and/or 5 days): led to the cells becoming apoptotic
Molecules A2E/molecules protein (COX; COX + CL + Cyt.c, darkness): 0.7 +/− 0.9 (n = 3)
Molecules A2E/molecules protein (COX; COX + CL + Cyt.c, exposure to light): 3.8 +/− 2.3 (n = 4)
Molecules A2E/molecules protein (COX; COX + CL, exposure to light): 2.7 +/− 3.6 (n = 4)
Molecules A2E/molecules protein (Cyt.c; darkness): 0.0 (n = 3)
Molecules A2E/molecules protein (Cyt.c; exposure to light): 0.0 (n = 3)
Molecules A2E/molecules protein (BSA; darkness): 1.6 +/− 0.5 (n = 3)
Molecules A2E/molecules protein (BSA; exposure to light): 1.6 +/− 0.5 (n = 3)
Molecules A2E/molecules protein (Myoglobin; darkness): 0.0 (n = 2)
Molecules A2E/molecules protein (Myoglobin; exposure to light): 0.0 (n = 2)
IC50 ([3]; solubilized COX 1 μg/mL): 3 µM
IC50 ([3]; solubilized COX 4 μg/mL): 20 µM

Cc1cc(N)c2ccccc2[n+]1CCCCCCCCCC[n+]1c(C)cc(N)c2ccccc21 [Dequalinium]
IC50 ([1]; solubilized COX 2 μg/mL): 40 µM

C[n+]1ccc(-c2ccccc2)cc1 [MPP^+, methylphenyl pyridinium ion]
IC50 (μM) in relation to COX ([1]; solubilized COX 2 μg/mL): No inhibition

CC1=C(/C=C/C(C)=C/C=C/C(C)=C/C=O)C(C)(C)CCC1 [Retinal]
IC50 ([1]; solubilized COX 2 μg/mL): 200 µM

CCCCCCCCCCCCCCCCCCN [Stearylamine]
IC50 (μM) in relation to COX ([1]; solubilized COX 2 μg/mL): No inhibition

c1ccc([P+](c2ccccc2)(c2ccccc2)c2ccccc2)cc1 [TPP^+, tetraphenyl phosphonium ion]
IC50 (μM) in relation to COX ([1]; solubilized COX 2 μg/mL): No inhibition

phosphatidylinositol [PI]
Protection of reconstituted COX from inhibition by A2E [4]: pronounced protective effect
